Structures can show the parent of a compound that is named as a salt.
Tests used:
Assay in all cases: Post-emergence efficacy, glasshouse spray test
Format in all cases: in vivo
Lolium perenne (LOLPE) = settings: Lolium perenne, post-emergence, 312 h, evaluated after 13 days, read-out: Control of weed species after post-emergence application, LOLPE (100=total damage to plant; 0=no damage to plant); for pest or weed control at 500 g/ha: Application Rate 500 g/Ha; for pest or weed control at 125 g/ha: Application Rate 125 g/Ha
Method: (§1) Seeds of a variety of test species were sown in standard soil in pots. After cultivation for 14 days (post-emergence) under controlled conditions in a glasshouse (at 24/16° C. day/night; 14 hours light; 65% humidity), the plants were sprayed with an aqueous spray solution derived from the dissolution of the technical active ingredient formula (I) in a small amount of acetone and a special solvent and emulsifier mixture referred to as IF50 (11.12% Emulsogen EL360 TM+44.44% N-methyl pyrrolidone+44.44% Dowanol DPM glycolether), to create a 50 g/l solution which was then diluted to required concentration using 0.25% or 1% Empicol ESC70 (Sodium lauryl ether sulphate)+1% ammonium sulphate as diluent. The test plants were then grown in a glasshouse under controlled conditions (at 24/16° C., day/night; 14 hours light; 65% humidity) and watered twice daily. After 13 days the test was evaluated (100=total damage to plant; 0=no damage to plant).
(§2) Ipomoea hederacea (IPOHE), Euphorbia heterophylla (EPHHL), Chenopodium album (CHEAL), Amaranthus palmeri (AMAPA), Lolium perenne (LOLPE), Digitaria sanguinalis (DIGSA), Eleusine indica (ELEIN), Echinochloa crus-galli (ECHCG), Setaia fabei (SETFA)

[1] = system: Chenopodium album (CHEAL); settings: Chenopodium album, post-emergence, 312 h, evaluated after 13 days, read-out: Control of weed species after post-emergence application, CHEAL (100=total damage to plant; 0=no damage to plant); for pest or weed control at 500 g/ha: Application Rate 500 g/Ha; for pest or weed control at 125 g/ha: Application Rate 125 g/Ha
Method: as §1, §2

[2] = system: Amaranthus palmeri (AMAPA); settings: Amaranthus palmeri, post-emergence, 312 h, evaluated after 13 days, read-out: Control of weed species after post-emergence application, AMAPA (100=total damage to plant; 0=no damage to plant); for pest or weed control at 500 g/ha: Application Rate 500 g/Ha; for pest or weed control at 125 g/ha: Application Rate 125 g/Ha
Method: as §1, §2

[3] = system: Ipomoea hederacea (IPOHE); settings: Ipomoea hederacea, post-emergence, 312 h, evaluated after 13 days, read-out: Control of weed species after post-emergence application, IPOHE (100=total damage to plant; 0=no damage to plant); for pest or weed control at 500 g/ha: Application Rate 500 g/Ha; for pest or weed control at 125 g/ha: Application Rate 125 g/Ha
Method: as §1, §2

[4] = system: Echinochloa crus-galli (ECHCG); settings: Echinochloa crus-galli, post-emergence, 312 h, evaluated after 13 days, read-out: Control of weed species after post-emergence application, ECHCG (100=total damage to plant; 0=no damage to plant); for pest or weed control at 500 g/ha: Application Rate 500 g/Ha; for pest or weed control at 125 g/ha: Application Rate 125 g/Ha
Method: as §1, §2

[5] = system: Digitaria sanguinalis (DIGSA); settings: Digitaria sanguinalis, post-emergence, 312 h, evaluated after 13 days, read-out: Control of weed species after post-emergence application, DIGSA (100=total damage to plant; 0=no damage to plant); for pest or weed control at 500 g/ha: Application Rate 500 g/Ha; for pest or weed control at 125 g/ha: Application Rate 125 g/Ha
Method: as §1, §2

Setaia fabei (SETFA) = settings: Setaria faberi, post-emergence, 312 h, evaluated after 13 days, read-out: Control of weed species after post-emergence application, SETFA (100=total damage to plant; 0=no damage to plant); for pest or weed control at 500 g/ha: Application Rate 500 g/Ha; for pest or weed control at 125 g/ha: Application Rate 125 g/Ha
Method: as §1, §2

[6] = system: Euphorbia heterophylla (EPHHL); settings: Euphorbia heterophylla, post-emergence, 312 h, evaluated after 13 days, read-out: Control of weed species after post-emergence application, EPHHL (100=total damage to plant; 0=no damage to plant); for pest or weed control at 500 g/ha: Application Rate 500 g/Ha; for pest or weed control at 125 g/ha: Application Rate 125 g/Ha
Method: as §1, §2

Eleusine indica (ELEIN) = settings: Eleusine indica, post-emergence, 312 h, evaluated after 13 days, read-out: Control of weed species after post-emergence application, ELEIN (100=total damage to plant; 0=no damage to plant); for pest or weed control at 500 g/ha: Application Rate 500 g/Ha; for pest or weed control at 125 g/ha: Application Rate 125 g/Ha
Method: as §1, §2

SMILES | pest or weed control at 500 g/ha (Lolium perenne (LOLPE)) | pest or weed control at 500 g/ha [1] | pest or weed control at 500 g/ha [2] | pest or weed control at 500 g/ha [3] | pest or weed control at 500 g/ha [4] | pest or weed control at 500 g/ha [5] | pest or weed control at 500 g/ha (Setaia fabei (SETFA)) | pest or weed control at 500 g/ha [6] | pest or weed control at 500 g/ha (Eleusine indica (ELEIN)) | pest or weed control at 125 g/ha (Lolium perenne (LOLPE)) | pest or weed control at 125 g/ha [1] | pest or weed control at 125 g/ha [2] | pest or weed control at 125 g/ha [3] | pest or weed control at 125 g/ha [4] | pest or weed control at 125 g/ha [5] | pest or weed control at 125 g/ha (Setaia fabei (SETFA)) | pest or weed control at 125 g/ha [6] | pest or weed control at 125 g/ha (Eleusine indica (ELEIN))
O=S(=O)([O-])CC[n+]1ccc(-c2nccs2)cn1 [Compound A1, 2-(4-thiazol-2-ylpyridazin-1-ium-1-yl)ethanesulfonate] | 90% | 70% | 100% | 50% | 60% | 100% | 50% | 70% | 50% | – | – | – | – | – | – | – | – | –
Cn1ccc(-c2cc[n+](CCS(=O)(=O)[O-])nc2)n1 [Compound A2] | – | – | – | – | – | – | – | – | – | 0% | 0% | 0% | 10% | 10% | 20% | 20% | 30% | 10%
O=S(=O)([O-])CCC[n+]1ccc(-c2ncco2)cn1 [Compound A3, 3-(4-oxazol-2-ylpyridazin-1-ium-1-yl)propane-1-sulfonate] | – | – | – | – | – | – | – | – | – | 20% | 60% | 20% | 40% | 70% | 80% | 80% | 70% | 50%
Cn1nccc1-c1cc[n+](CCCS(=O)(=O)[O-])nc1 [Compound A4] | 0% | 30% | 10% | 10% | 20% | 30% | 20% | 40% | 10% | – | – | – | – | – | – | – | – | –
O=S(=O)([O-])CC[n+]1ccc(-c2ccns2)cn1 [Compound A5] | 100% | 100% | 100% | 70% | 70% | 60% | 60% | 100% | 80% | – | – | – | – | – | – | – | – | –
Cn1ncc(-c2cc[n+](CCS(=O)(=O)[O-])nc2)n1 [Compound A6] | 60% | 40% | 90% | 10% | 60% | 60% | 70% | 20% | 60% | – | – | – | – | – | – | – | – | –
O=S(=O)([O-])CCC[n+]1ccc(-c2nnco2)cn1 [Compound A7] | 10% | 0% | 0% | 10% | 10% | 30% | 10% | 20% | 20% | – | – | – | – | – | – | – | – | –
O=S(=O)([O-])OCC[n+]1ccc(-c2ncno2)cn1 [Compound A8, 2-[4-(1,2,4-oxadiazol-5-yl)pyridazin-1-ium-1-yl]ethyl sulfate] | 10% | 10% | 10% | 30% | 50% | 50% | 40% | 30% | 20% | – | – | – | – | – | – | – | – | –
O=S(=O)([O-])CC[n+]1ccc(-c2ncns2)cn1 [Compound A9] | 30% | 70% | 90% | 80% | 60% | 70% | 60% | 90% | 80% | – | – | – | – | – | – | – | – | –
O=S(=O)([O-])CC[n+]1ccc(-c2ccno2)cn1 [Compound A79] | 70% | 90% | 100% | 80% | 80% | 90% | 90% | – | 100% | – | – | – | – | – | – | – | – | –
Cn1cc(-c2cc[n+](CCC(=O)O)nc2)nn1 [Compound A80] | 0% | 10% | 40% | 10% | 0% | 60% | 40% | – | 10% | – | – | – | – | – | – | – | – | –
Cn1cc(-c2cc[n+](CCS(=O)(=O)[O-])nc2)nn1 [Compound A81] | 10% | 40% | 50% | 10% | 30% | 70% | 50% | – | 10% | – | – | – | – | – | – | – | – | –
O=C(O)c1ccccc1C[n+]1ccc(-c2ncco2)cn1 [Compound A91] | 10% | 60% | 40% | 20% | 20% | 40% | 20% | – | 40% | – | – | – | – | – | – | – | – | –
COC(=O)[C@@H](N)CC[n+]1ccc(-c2ncco2)cn1 [Compound A109] | 10% | 90% | 90% | 0% | – | – | 90% | 60% | – | – | – | – | – | – | – | – | – | –
COC(=O)CCC[n+]1ccc(-c2nccs2)cn1 [Compound A114] | 30% | 60% | 100% | 10% | 40% | 70% | 50% | – | 90% | – | – | – | – | – | – | – | – | –
